Data from US20090264342A1, “COMPOSITIONS AND METHODS FOR ANTIBIOTIC POTENTIATION AND DRUG DISCOVERY” (priority 2006, published 2009).

How the values were obtained:
[1] = test system: E. coli MG1655; assay: Hydroxyl radical formation (HPF dye, flow cytometry) in E. coli; type: cell-based; details: for hydroxyl radical formation: E. coli, 250 ng/mL norfloxacin, 5 μg/mL ampicillin, 5 μg/mL kanamycin, bacteriostatic drugs, 3 hours after addition
Protocol: (§1) Growth Conditions. In the experiments, the growth and survival of untreated exponential phase E. coli, or S. aureus, were compared to cultured treated with antibiotics at the above concentrations. E. coli cultures were treated with norfloxacin, kanamycin, ampicillin, rifamycin SV, chloramphenical, tetracycline, erythromycin, or spectinomycin, where appropriate, S. aureus cultures were treated with norfloxacin, vancomycin or chloramphenical, where appropriate.
Hydroxyl radical and DNA damage sensor experiments using the flow cytometer. To monitor the occurrence of DNA damage, the engineered DNA damage sensor was used, which responds to auto-cleavage of LexA by activating expression of gfpmut3b. All the drug treatments and the no-drug controls were collected with both the kanamycin- and ampicillin-resistant version of the plasmid, with the exception of the ampicillin treatment (kanamycin plasmid only) and the kanamycin treatment (ampicillin plasmid only). All data were collected using a Becton Dickinson FACSCalibur flow cytometer (Becton Dickinson, San Jose, Calif.) with a 488-nm argon laser and a 515- to 545-nm emission filter (FL1) at low flow rate. The following PMT voltage settings were used: E00 (FSC), 360 (SSC) and 700 (FL1). To detect hydroxyl radical formation, the fluorescent reporter dye, 3′-(p-hydroxyphenyl) fluorescein (HPF, Invitrogen, Carlsbad, Calif.) was used at a concentration of 5 μM (1:1000) dilution), which is oxidized by hydroxyl radicals with high specificity. The following PMT voltage settings were used: E00 (FSC), 360 (SSC) and 825 (FL 1). Calibrite beads (Becton Dickinson) were used for instrument calibration.
Flow data were processed and analyzed with MATLAB (MathWorks, Natick, Mass.) to construct figures. At least 50,000 cells were collected for each sample. In all experiments, cells were grown as described above. Samples were taken immediately before addition of drug (time zero), then every hour for 3 hours. At each timepoint, approximately […] were collected, washed once and resuspended in filtered 1×PBS, pH 7.2 (Fisher Scientific), and fluorescence was measured on the flow cytometer.
In the present study, the Applicants chose to investigate whether hydroxyl radical formation also contributes to antibiotic-induced cell death in bacteria. Using the dye hydroxyphenyl fluorescein, HPF, which is oxidized by hydroxyl radicals with high specificity, hydroxyl radical formation was first observed over a range of hydrogen peroxide concentrations known to induce hydroxyl radicals through the reduction of hydrogen peroxide by ferrous iron. In this manner, it was possible to establish the scale of hydroxyl radical formation detectable using this dye via flow cytometry.

[2] = test system: wild-type E. coli; type: cell-based; details: norfloxacin, ampicillin or kanamycin treatment plus 2,2′-dipyridyl (500 μM)
Protocol: FIG. 36 is a set of 3 graphs showing the effect of iron chelation, hydroxyl radical quenching of iron-sulfur synthesis on the […] efficiency of bactericidal antibiotics. a,c,e, Log change in colony forming units per mL (CFU/mL, mean+/−standard deviation). Effect of addition of 500 μM 2,2′-dipyridyl or 150 mM thiourea to wildtype E. coli, and on an iron-sulfur cluster synthesis mutant, ΔiscS, on bactericidal drug efficacy and hydroxyl radical formation following exposure to a, 250 ng/mL norfloxacin (Nor), c, 5 μg/mL ampicillin (Amp), or e, 5 μg/mL kanamycin (Kan).
as §1
Application of iron chelators is an established means of blocking Fenton reaction-mediated hydroxyl radical formation by sequestering unbound iron. […]

[3] = test system: strain E1; assay: Potentiation of gentamicin by mefloquine (MBC, MIC); type: cell-based
Excerpt: Several aminoglycoside (gentamicin) potentiator target genes identified in Example 34 are ATP synthases.

[4] = test system: SOS response (LexA auto-cleavage) in E. coli; assay: SOS induction, LexA-controlled GFP DNA damage sensor; type: cell-based; details: 5 μg/mL Amp, 5 μg/mL Kan, 25 ng/mL Nor; 3 hours after addition
Protocol: FIG. 37 is a set of two graphs showing SOS induction in E. coli by bactericidal antibiotics. Activation of the SOS response was monitored using an engineered sensor construct that employs the LexA repressor for control of Green Fluorescent Protein (GFP) expression. Shown are representative GFP histogram measurements taken 3 hours after addition of a, bactericidal antibiotics (5 μg/mL Amp, 5 μg/mL Kan, 25 ng/mL Nor). b, Log change in CFU/mL of ΔrecA E. coli following exposure to 5 μg/mL Kanamycin (open diamonds), 25 ng/mL Norfloxacin (open triangles), and 5 μg/mL Ampicillin (open circles). For comparison, CFU/mL are also shown for widltype E. coli exposed to 5 μg/mL Kanamycin (diamonds), 25 ng/mL Norfloxacin (triangles), and 5 μg/mL Ampicillin (circles), as well as a lower concentration of norfloxacin in these experiments to highlight the significant increase in killing in a recA knockout.
DNA damage sensor construction. The DNA sensor construct with ampicillin resistance was described previously (D. J. Dwyer et al., “Superoxide and hydroxyl radicals contribute to gyrase inhibitor-mediated cell death in E. coli”, 2007 accepted by Mol. Syst. Biol., which is incorporated herein by reference in its entirety).
Hydroxyl radical and DNA damage sensor experiments using the flow cytometer. […]
Hydroxyl radical are extremely toxic, and will readily damage membrane lipids, proteins and DNA. […]

[5] = biological target: T1, E. Coli RecA protein (Escherichia coli, UniProt P0A7G6); assay: RecA ATPase activity, in vitro luciferase assay; type: biochemical; details: luciferase assay screen
T1 construct: purchased New England Biolabs
T1 sequence (P0A7G6 2-353): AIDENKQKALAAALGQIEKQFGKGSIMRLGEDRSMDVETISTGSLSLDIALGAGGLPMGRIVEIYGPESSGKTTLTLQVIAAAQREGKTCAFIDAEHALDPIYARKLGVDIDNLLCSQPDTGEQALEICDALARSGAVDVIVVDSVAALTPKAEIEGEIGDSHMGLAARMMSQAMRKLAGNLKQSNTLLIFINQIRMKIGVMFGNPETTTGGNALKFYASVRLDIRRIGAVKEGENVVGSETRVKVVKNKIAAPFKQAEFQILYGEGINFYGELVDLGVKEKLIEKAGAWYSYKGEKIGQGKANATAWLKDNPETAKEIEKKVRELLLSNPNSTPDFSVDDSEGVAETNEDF
Protocol: The assay measures the amount of ATPase (adenosine triphosphate (ATP)-adenosine diphosphate (ADP)) activity catalyzed by E. Coli RecA protein. In the assay, recA is incubated in reaction buffer with DNA, ATP and compounds of interest for a measured amount of time. The quantity of ATP remaining after the RecA reaction is quantitated using a subsequent luciferase assay. […] Details of the assay are provided below.
Materials. Kingase glo plus, adenosine triphosphate (ATP), Adenosine 5′-O-(3-thiotriphosphate), and 384 well plates, white were obtained from Fisher; and M13 mp18 Single-stranded DNA, RecA Protein and T4 Polynucleotide Kinase Reaction Buffer=PNK were obtained from New England Biolabs. PNK contained 70 mM Tris-CL pH 7.5, 10 mM MgCl2 and 5 mM DTT.
Assay Procedure. Final reaction mixture contains: 0.5 μL of M13 single stranded DNA (250 μg/mL); 1.0 μL of 10×PHK buffer; 0.25 μL of RecA (2 mg/mL); 0.25 μL of 1 mM ATP; 0.25 μL of test compound in DMSO; and […] of H2O.
Test compounds are incubated at room temperature in the presence of RecA protein and DNA prior to addition of ATP. This can be achieved by the preparation of two mixes, as indicated below. Desirably, both a no-DNA and a DNA/DMSO-only (i.e., no test compound) control were included.
The following steps are then performed: (1) Add 7.75 μL of mix 1 to the well of a 384 well plate; (2) Add 0.5 μL of the compound of interest; (3) Incubate at room temperature for 5 minutes; (4) Add 2.5 μL of the ATP mix. Incubate at room temperature for 30 minutes; (5) Add 12.5 μL of Promega Kinase glo plus; (6) Incubate at room temperature for 10 minutes or more; and (7) Measure luminescence of the reaction.
Tested compounds were obtained from Boston University (1205 compounds from CMLD diversity library, available from Dr. Scott Schauss), IndoFine (66 compounds based on flavone structure), ChemdiV (48 compounds known to be ATPase inhibitors and 720 compounds structurally related to CB101 (described, for example, in U.S. Ser. No. 60/662,038), and Asinex. Five (5) tested compounds were bisfiavones and 28 were predicted, based on structural modeling (see, for example, Example 31) to dock with Rec A. Many of the compounds are lipophilic, natural-product-like compounds. Others are flavones, bisflavones, flavonoids, coumarins, and/or heterocyclic compounds.
Percent inhibition is calculated according to the following equation: […]

[6] = test system: S. aureus strain S3 (ISP 794); assay: Survival assay, potentiation of ciprofloxacin, S. aureus strain S3; type: cell-based; details: 1 μg/mL ciprofloxacin + 25 μg/mL hinokiflavone, 16 hour time point
Excerpt: Cell-based Survival Assay.

[7] = test system: S. aureus cells; assay: Mutation/resistance assay, resistance to ciprofloxacin; type: cell-based; details: 4×MIC ciprofloxacin with (+) or without (−) 25 μg/mL hinokiflavone
Protocol: This assay measures the rate at which mutant cells arise in the presence of an antibiotic agent. Cells are grown in the presence of antibiotic agent at a concentration above (generally well above, e.g., 4× or 8×) its MIC, and further in the presence or absence of a test agent (that may inhibit or enhance mutation).
Every 24 hours, an aliquot is removed from the culture and is diluted so that the antibiotic agent is no longer present at a concentration above its MIC (e.g., so that the antibiotic agent is present at 0.5×MIC or less). These aliquoted samples are then assayed to determine whether they can grow in the presence of the antibiotic agent. Specifically, when growth is observed in the presence of antibiotic agent at a concentration that is 4×MIC, then resistance is said to have developed. Test compounds can therefore be assayed to assess whether or not they can reduce the incidence of resistance (e.g., by inhibiting mutation).
These aliquoted samples were then assayed to determine whether they can grow in the presence of ciprofloxacin. […]

[8] = test system: wildtype E. coli; assay: NAD+/NADH extraction and NAD cycling assay; type: cell-based; details: bacteriostatic drug
Excerpt: NAD+/NADH extraction and NAD cycling assay. Protocols for dinucleotide extraction and the cycling assay were based on protocols by Leonardo et al. (M. R. Leonardo et al., J. Bacteriol., 1996, 178: 6013-6018).
Using a modified version (M. R. Leonardo et al., J. Bacteriol., 1996, 178: 6013-6018;) of the NAD^+ cycling assay developed by Bernofsky and Swan (C. Bernofsky et al., Anal. Biochem., 1973, 53: 452-458), the present Applicants monitored NAD^+ and NADH concentrations in wildtype E. coli following treatment with the bactericidal drugs norfloxacin, ampicillin and kanamycin, as well as the bacteriostatic drug spectinomycin. For all three bactericidal drugs, a >5 fold increase in the NAD^+/NADH ratio was observed 0.5 hours after drug addition. This ratio returned to untreated levels by 1 hour. The increase in the NAD^+/NADH ratio was predominantly due to a large relative drop in NADH accompanied by a modest surge in NAD^+. This spike was not observed in an untreated culture, where the ratio of NAD^+/NADH remained tightly bounded. More importantly, treatment with the bacteriostatic drug spectinomycin had no effect on the NAD^+/NADH ratio relative to the untreated culture. A surge in NADH consumption upon exposure to bactericidal antibiotics should induce a burst in superoxide generation via the respiratory chain. […]

[9] = biological target: E. coli H+ATPase (Escherichia coli, UniProt P0AB98+P68699); details: cited from earlier work

## c1ccc(-c2ccccn2)nc1 [2,2′-dipyridyl]
[1]; addition of 2,2′-dipyridyl (500 μM)
  hydroxyl radical formation in norfloxacin-treated cultures: significantly reduced hydroxyl radical formation
[2]
  survival of bactericidal drug-treated E. coli following addition of iron chelator: significant increase in survival

## OC(c1cc(C(F)(F)F)nc2c(C(F)(F)F)cccc12)C1CCCCN1 (centres unmarked) [Mefloquine]
[3]; strain E1, Mefloquine 100 μg/mL
  reduction of the MBC of gentamicin: 6 fold
[3]; strain E1, Mefloquine 500 μg/mL
  reduction of the MIC of gentamicin: 2 fold

## CC1(C)S[C@@H]2[C@H](NC(=O)[C@H](N)c3ccccc3)C(=O)N2[C@H]1C(=O)O [ampicillin]
[1]
  hydroxyl radical formation: induce hydroxyl radical formation
[4]
  SOS activity (LexA-driven GFP expression): induced the SOS response

## O=c1cc(-c2ccc(Oc3c(O)cc4oc(-c5ccc(O)cc5)cc(=O)c4c3O)cc2)oc2cc(O)cc(O)c12 [hinokiflavone]
[5]
  IC50: < 1860 nM
[6]
  fewer CFUs in the presence of hinokiflavone as compared with its absence: approximately 100 fold
[7]; culture grown 0 days
  Number of Wells in which Growth Observed in Presence of Ciprofloxacin at 4x MIC: 0
[7]; culture grown 1 day
  Number of Wells in which Growth Observed in Presence of Ciprofloxacin at 4x MIC: 0
[7]; culture grown 5 days
  Number of Wells in which Growth Observed in Presence of Ciprofloxacin at 4x MIC: 0
[7]; culture grown 6 days
  Number of Wells in which Growth Observed in Presence of Ciprofloxacin at 4x MIC: 0
[7]; culture grown 7 days
  Number of Wells in which Growth Observed in Presence of Ciprofloxacin at 4x MIC: 3
[7]; culture grown 10 days
  Number of Wells in which Growth Observed in Presence of Ciprofloxacin at 4x MIC: 4

## CN[C@@H]1[C@H](O)[C@H](NC)[C@H]2O[C@@]3(O)C(=O)C[C@@H](C)O[C@H]3O[C@@H]2[C@H]1O [spectinomycin]
[1]
  hydroxyl radical formation: did not stimulate hydroxyl radical production
[8]
  effect on the NAD+/NADH ratio relative to the untreated culture: no effect

## venturicidin
[9]
  inhibition of ATP-driven proton transport and ATP hydrolysis: strongly inhibited
